From publication PMC8571378, “Reversion analysis reveals the in vivo immunogenicity of a poorly MHC I-binding cancer neoepitope” (Nature Communications, 2021)

What was measured:
splenic CD8 T cells = experiment: ELIspot for interferon γ of splenic CD8 T cells from immunized mice; assay type: cell-based, BALB/c mice; conditions: spleens seven days after second immunization; in vitro stimulation with immunizing 18-mer, 10 µM
Text: BALB/c mice were immunized with 18-mer peptides containing Ccdc85c^MUT as well as Ccdc85c^WT as described in Methods. Spleens were harvested seven days after the second immunization and splenic CD8 T cells tested by ELIspot for interferon γ production in response to stimulation in vitro with the peptides used for immunization. […] Since the CD8 response detected in vitro was so modest, CD8 response as detected in vivo in the tumor microenvironment became our focus.
Supplementary Fig. 3. CD8 response to Ccdc85cMUT and Ccdc85cWT peptides. BALB/c mice were immunized twice at a weekly interval with 18-mer peptides containing Ccdc85cWT (left) or Ccdc85cMUT (right) as described in Methods. Spleens were harvested seven days after the second immunization and CD8 T cells stimulated in vitro with the peptides (10 µM concentration) used for immunization, as indicated. CD8 cells were analyzed for release of interferon g. Each dot represents a single mouse. The P values were calculated using two tailed t-test. Data are presented as mean values +/- SD. […]

[1] = test system: tumor infiltrating CD45 + cells; experiment: scRNA seq of tumor infiltrating CD45+ cells in immunized mice; assay type: in vivo, BALB/cJ mice
Text: Tumor microenvironment (TME) of Ccdc85c^MUT-immunized mice was examined using single cell RNA sequencing (scRNA seq). BMDCs- immunized mice were used as controls. As a peptide control, mice immunized with a neoepitope Alms1^MUT were used. […] Mice were immunized with Ccdc85c^MUT, Alms1^MUT (peptide control) or BMDCs (control) as described in Methods, and were challenged with Meth A. RNA from CD45 + cells (estimated 15,925 cells for the four libraries after QC, with an average coverage of 32,663 reads per cell and median 1,339 genes per cell) was sequenced. Data from the four libraries were pooled and clustered based on the gene expression pattern of each as described in Methods. Annotation of the clusters was informed by both differentially expressed genes (DE Genes) and per cluster highly expressed genes identified by the TF-IDF analysis as described in Methods. Two major and distinct clusters were identified namely, myeloid and lymphoid. […] The proportion of lymphoid versus myeloid compartments in the Ccdc85c^MUT library was very different compared to the Alms1^MUT or control groups. The Ccdc85c^MUT library was mostly composed of lymphoid cells (62.68% lymphoid and 37.32% myeloid), while the control groups and mice immunized with Alms1^MUT were mostly composed of the myeloid compartment (~35% lymphoid and ~64% myeloid) (Fig. 2a, right panel). In order to study different cell types, lymphoid and myeloid clusters were re-clustered into 6 and 9 sub-clusters, respectively (Fig. 2a, bottom panel). The six identified lymphoid clusters were: CD4 T cells (CD4(1)), NKC(1), naive/early activated CD4 T cells (CD4(2), defined by a high expression of Sell, Il7r, Tcf7 and Ccr7 genes and low expression of Il2ra and lack of expression of effector and cytotoxicity genes), NKC(2) (less cytotoxic and active than NKC(1)), CD8 T cells (CD8) and proliferating CD4/CD8 T cells (Pr. CD4/CD8, defined by higher expression of Stmn1 and Mki67 genes and cell cycle gene expression analysis, described in Methods). The selected genes used as markers to annotate each lymphocyte cluster are listed in the summary heat map (Fig. 2b, right panel).
Fig. 2 Immune response in mice immunized with Ccdc85c^MUT and control neoepitope Alms1.1^MUT. a Tumors from mice immunized with Ccdc85c^MUT or Alms1.1^MUT as well as two groups of control mice immunized with BMDCs were harvested 10 days after tumor challenge. Tumor infiltrating CD45 + cells were sorted and analyzed by scRNA seq as described in Methods and Supplementary Fig 9b. Combined scRNA seq data from four libraries were analyzed. The t-SNE[34] plots of all intra-tumoral immune cells as well as myeloid and lymphoid compartments are shown in the top left panel. Myeloid and lymphoid composition for each library is shown on the right panel. The myeloid and lymphoid sub-clusters are shown in the bottom panels. See text for definition of each sub-cluster. b Heat maps of the indicated genes in the myeloid and lymphoid compartments are shown. The heat map genes were selected from the list of differentially expressed genes, genes with a high average TF-IDF score, and typical cell type markers. The average gene expression for each cluster was normalized by dividing it from the maximum value of each row (gene). c Summary heat map of selected genes associated with cytotoxicity for pooled activated T cells is shown. The heat map illustrates scaled (Z-scored) average gene expression by library. TEXT PRINTED IN THE PICTURE: (a) Alms1.1^MUT: Lymphoid cells: 34.28%; Myeloid cells: 65.72% | (a) Ccdc85c^MUT: Lymphoid cells: 62.68%; Myeloid cells: 37.32% DOUBTS OF THE COPYIST ABOUT THIS PICTURE: Panel a, bar chart: no measure is printed beside the percentages. I assigned them to 'Lymphoid cells' (blue) and 'Myeloid cells' (red) only by matching the colours of the plot next to it. / Panel a, bar chart: the control bars also carry percentages (Cont.1: 35.75% and 64.25%; Cont.2: 37.55% and 62.45%). […]

[2] = compared to control or Alms1^MUT libraries
[3] = tumors harvested 10 days after Meth A challenge

DPSSTYIRPFETKVKLLD [18-mer peptide with the mutant amino acid near the center]
CD8 response (interferon γ ELIspot) (splenic CD8 T cells): very modest but statistically significant CD8 response | contribution of library to myeloid cluster Mφ1 ([1]; Mφ1): ~ 20% | contribution of library to myeloid cluster Mφ2 ([1]; Mφ2, highest apart from Mφ1): 13.4% | contribution of library to myeloid cluster Mφ3 ([1]; Mφ3, lowest contribution): 1.6% | expression of cytotoxicity (Gzmb, Prf, Nkg7) and effector function (Ifng) genes in T cells [1, 2]: significantly higher | expression of genes involved in TCR engagement (Nr4a1 and Irf4) in T cells [1, 2]: significantly higher | expression of Eomes in T cells ([1]; compared to other libraries): significantly higher | contribution of library to pooled activated CD4 and CD8 T cells (clusters 1 and 5) ([1]; proliferating CD4/CD8 T excluded): 31% | Lymphoid cells, fraction of intra-tumoral immune cells [1, 3]: 62.68% | Myeloid cells, fraction of intra-tumoral immune cells [1, 3]: 37.32% | fraction of NK cells from the NKC(1) (more cytotoxic and active) cluster [1, 3]: ~ 80%
